Values joined by “and” are separate entries in the source; they are usually repeats but may differ in a detail not shown here. Equal entries are not always repeated.
Legend:
[1] = target: T1, Inhibitor of nuclear factor kappa-B kinase subunit beta (Homo sapiens) (UniProt O14920); conditions: at 1 µM
T1 sequence (whole entry): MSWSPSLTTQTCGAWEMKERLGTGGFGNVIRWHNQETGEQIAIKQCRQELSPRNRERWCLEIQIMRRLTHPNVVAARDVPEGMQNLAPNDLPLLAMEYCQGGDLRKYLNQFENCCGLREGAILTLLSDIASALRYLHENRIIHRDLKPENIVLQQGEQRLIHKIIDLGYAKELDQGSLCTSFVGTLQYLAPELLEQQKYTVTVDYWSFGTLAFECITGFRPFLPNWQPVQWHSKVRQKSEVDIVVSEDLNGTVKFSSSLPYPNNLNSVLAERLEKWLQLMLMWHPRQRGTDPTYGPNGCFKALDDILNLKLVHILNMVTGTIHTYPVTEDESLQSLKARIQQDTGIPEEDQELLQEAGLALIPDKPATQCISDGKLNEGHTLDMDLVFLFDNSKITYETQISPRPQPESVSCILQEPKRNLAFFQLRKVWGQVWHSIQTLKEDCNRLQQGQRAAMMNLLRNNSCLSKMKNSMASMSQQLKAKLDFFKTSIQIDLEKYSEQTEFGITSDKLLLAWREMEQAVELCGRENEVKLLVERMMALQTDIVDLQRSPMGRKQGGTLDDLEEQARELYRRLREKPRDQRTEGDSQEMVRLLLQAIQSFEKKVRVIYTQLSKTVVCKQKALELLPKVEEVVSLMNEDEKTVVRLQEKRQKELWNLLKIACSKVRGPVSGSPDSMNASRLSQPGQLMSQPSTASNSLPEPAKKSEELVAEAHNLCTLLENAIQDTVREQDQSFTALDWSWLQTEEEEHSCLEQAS

[2] = target: T2, Tyrosine-protein kinase Mer (Homo sapiens) (UniProt Q12866); conditions: at 10 µM
T2 sequence (whole entry): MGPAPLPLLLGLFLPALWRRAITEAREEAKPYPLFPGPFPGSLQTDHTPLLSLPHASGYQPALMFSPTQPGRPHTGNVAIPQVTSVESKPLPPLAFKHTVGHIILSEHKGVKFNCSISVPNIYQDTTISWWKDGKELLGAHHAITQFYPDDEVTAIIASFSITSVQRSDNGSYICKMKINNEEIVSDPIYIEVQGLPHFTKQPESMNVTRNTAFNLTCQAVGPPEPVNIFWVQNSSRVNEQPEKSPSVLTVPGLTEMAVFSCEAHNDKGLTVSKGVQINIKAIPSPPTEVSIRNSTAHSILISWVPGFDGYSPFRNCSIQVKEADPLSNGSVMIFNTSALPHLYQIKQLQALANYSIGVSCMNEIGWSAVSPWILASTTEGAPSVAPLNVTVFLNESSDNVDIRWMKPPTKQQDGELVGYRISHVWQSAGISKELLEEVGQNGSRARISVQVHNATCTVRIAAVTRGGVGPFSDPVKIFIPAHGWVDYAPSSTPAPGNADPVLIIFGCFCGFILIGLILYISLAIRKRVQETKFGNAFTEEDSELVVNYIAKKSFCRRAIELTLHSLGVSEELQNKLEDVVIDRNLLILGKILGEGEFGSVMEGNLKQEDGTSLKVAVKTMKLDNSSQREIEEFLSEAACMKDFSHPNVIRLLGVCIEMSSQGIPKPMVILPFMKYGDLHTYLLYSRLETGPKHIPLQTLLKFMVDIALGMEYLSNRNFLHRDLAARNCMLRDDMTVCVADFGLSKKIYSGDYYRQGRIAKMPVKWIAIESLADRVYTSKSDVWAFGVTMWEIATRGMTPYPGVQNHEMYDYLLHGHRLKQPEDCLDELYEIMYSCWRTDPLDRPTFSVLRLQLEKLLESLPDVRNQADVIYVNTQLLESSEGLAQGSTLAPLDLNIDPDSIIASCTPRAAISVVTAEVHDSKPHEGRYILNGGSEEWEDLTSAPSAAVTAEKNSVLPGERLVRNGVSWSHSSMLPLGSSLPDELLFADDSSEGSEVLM

[3] = target: T3, Inhibitor of nuclear factor kappa-B kinase subunit epsilon (Homo sapiens) (UniProt Q14164); conditions: at 1 µM
T3 sequence (whole entry): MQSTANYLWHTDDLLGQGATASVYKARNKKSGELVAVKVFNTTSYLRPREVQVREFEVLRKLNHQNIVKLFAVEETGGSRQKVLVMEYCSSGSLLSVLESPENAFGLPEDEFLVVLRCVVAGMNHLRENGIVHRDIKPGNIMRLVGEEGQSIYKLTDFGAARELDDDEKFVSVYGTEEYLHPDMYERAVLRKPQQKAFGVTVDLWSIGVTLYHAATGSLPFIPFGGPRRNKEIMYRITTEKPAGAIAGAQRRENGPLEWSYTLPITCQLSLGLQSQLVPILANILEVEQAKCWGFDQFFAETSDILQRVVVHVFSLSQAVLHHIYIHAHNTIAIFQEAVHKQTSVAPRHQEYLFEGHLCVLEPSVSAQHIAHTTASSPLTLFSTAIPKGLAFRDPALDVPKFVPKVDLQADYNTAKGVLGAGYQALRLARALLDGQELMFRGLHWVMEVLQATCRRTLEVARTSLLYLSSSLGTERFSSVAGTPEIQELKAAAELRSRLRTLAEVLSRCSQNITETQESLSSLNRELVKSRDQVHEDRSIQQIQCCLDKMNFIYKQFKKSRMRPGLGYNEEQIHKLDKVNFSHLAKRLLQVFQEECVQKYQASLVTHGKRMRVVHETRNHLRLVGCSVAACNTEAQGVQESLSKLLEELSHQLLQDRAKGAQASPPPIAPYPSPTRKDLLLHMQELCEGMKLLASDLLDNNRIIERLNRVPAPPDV

[4] = target: T4, Serine/threonine-protein kinase TBK1 (Homo sapiens) (UniProt Q9UHD2); conditions: at 1 µM
T4 sequence (whole entry): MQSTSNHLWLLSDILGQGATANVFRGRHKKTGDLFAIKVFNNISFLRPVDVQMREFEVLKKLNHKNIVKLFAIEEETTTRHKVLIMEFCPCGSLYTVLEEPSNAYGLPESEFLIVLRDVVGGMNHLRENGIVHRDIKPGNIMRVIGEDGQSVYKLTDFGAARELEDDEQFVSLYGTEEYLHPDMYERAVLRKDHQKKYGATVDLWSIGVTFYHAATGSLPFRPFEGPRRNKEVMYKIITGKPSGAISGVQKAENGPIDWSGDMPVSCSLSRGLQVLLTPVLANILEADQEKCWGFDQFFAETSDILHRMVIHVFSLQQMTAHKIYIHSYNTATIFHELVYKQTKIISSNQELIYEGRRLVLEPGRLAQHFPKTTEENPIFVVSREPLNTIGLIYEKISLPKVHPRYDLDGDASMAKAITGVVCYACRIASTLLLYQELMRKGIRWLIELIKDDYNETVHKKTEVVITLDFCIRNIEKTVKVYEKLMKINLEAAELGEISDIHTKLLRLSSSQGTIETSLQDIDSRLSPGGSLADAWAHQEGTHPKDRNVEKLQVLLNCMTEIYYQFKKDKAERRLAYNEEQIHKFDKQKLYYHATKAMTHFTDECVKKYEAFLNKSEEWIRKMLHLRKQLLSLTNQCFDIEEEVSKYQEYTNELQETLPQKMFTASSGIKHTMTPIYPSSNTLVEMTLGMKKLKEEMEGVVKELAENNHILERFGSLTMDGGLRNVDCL

| inhibition [1] | inhibition [2] | inhibition [3] | inhibition [4] | Compound |
| --- | --- | --- | --- | --- |
| 3% | 10% | 45% and 46% | 12% | CCn1c(-c2nonc2N)nc2cnc(Oc3cccc(NC(=O)c4ccc(OCCN5CCOCC5)cc4)c3)cc21 |
| -2% and -1% | 4% | 0% and 1% | 3% and 0% | Cc1cccc2c1NC(=O)/C2=N\Nc1ccc(S(N)(=O)=O)cc1 |

Reference: ChEMBL document CHEMBL2007661, “Compounds: GSK PKIS; Assays: UNC Frye lab” (2012)
